Reference: patent US10294202B2, “Pyrrolidinones as herbicides” (FMC Corporation, priority 2013, dated 2019)

Experiments:
foxtail, giant = assay: Test C pre-/postemergence herbicide test; assay type: in vivo, Setaria faberii
How it was run: (§1)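 Herbicidal effect was judged by eye 13 to 15 days after treatment in the greenhouse, using a 0–100 scale against controls. Chemicals in a non-phytotoxic solvent with surfactant were sprayed onto planted loam/sand soil or onto plants 2 to 18 cm tall in a peat-based growing medium.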

corn = assay: Test C pre-/postemergence herbicide test; assay type: in vivo, Zea mays
How it was run: as §1

velvetleaf = assay: Test C pre-/postemergence herbicide test; assay type: in vivo, Abutilon theophrasti
How it was run: as §1

pigweed [1] = assay: Test C pre-/postemergence herbicide test; assay type: in vivo, Amaranthus retroflexus
How it was run: as §1

johnsongrass = assay: Test C pre-/postemergence herbicide test; assay type: in vivo, Sorghum halepense
How it was run: as §1

waterhemp = assay: Test C pre-/postemergence herbicide test; assay type: in vivo, Amaranthus rudis
How it was run: as §1

galium = assay: Test C pre-/postemergence herbicide test; assay type: in vivo, Galium aparine
How it was run: as §1

pigweed [2] = assay: Test A pre-/postemergence herbicide test; assay type: in vivo, Amaranthus retroflexus
How it was run: (§2)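 Both application timings used compounds in a non-phytotoxic solvent plus surfactant. Pre-emergence: soil sprayed directly after seeding into loam/sand. Post-emergence: foliage of 2–10 cm seedlings (1–2 leaves) sprayed. Injury rated ~10 days later, 0–100.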

nutsedge, yellow = assay: Test C pre-/postemergence herbicide test; assay type: in vivo, Cyperus esculentus
How it was run: as §1

wheat = assay: Test A pre-/postemergence herbicide test; assay type: in vivo, Triticum aestivum; conditions: Postemergence
How it was run: as §2

lambsquarters = assay: Test C pre-/postemergence herbicide test; assay type: in vivo, Chenopodium album
How it was run: as §1

oilseed rape = assay: Test C pre-/postemergence herbicide test; assay type: in vivo, Brassica napus
How it was run: as §1

[3] = Postemergence, 31 g ai/ha, scale 0 to 100 (0 no effect, 100 complete control)
[4] = Postemergence, 62 g ai/ha, scale 0 (no effect) to 100 (complete control)
[5] = Postemergence, 125 g ai/ha, scale 0 to 100 (0 no effect, 100 complete control)
[6] = Postemergence, 250 g ai/ha, scale 0 to 100 (0 no effect, 100 complete control)
[7] = Preemergence, 31 g ai/ha, scale 0 to 100, 0 is no effect and 100 is complete control
[8] = Preemergence, 62 g ai/ha, scale 0 to 100 (0 no effect, 100 complete control)
[9] = Preemergence, 125 g ai/ha, scale 0 to 100
[10] = Preemergence, 125 g ai/ha, scale 0 to 100 (0 no effect, 100 complete control)

## O=C1NCC(c2cccc(Br)c2)C1C(=O)Nc1cccc(F)c1F (centres unmarked) [Compound 309]
foxtail, giant; [3]
  Plant response rating, Foxtail, Giant: 10
foxtail, giant; [4]
  Plant response rating, Foxtail, Giant: 0
foxtail, giant; [5]
  Plant response rating, Foxtail, Giant: 40
foxtail, giant; [6]
  Plant response rating, Foxtail, Giant: 80
foxtail, giant; [7]
  Foxtail, Giant plant response rating: 90
foxtail, giant; [8]
  Foxtail, Giant plant response rating: 90
foxtail, giant; [9]
  Plant response rating, Foxtail, Giant: 90
foxtail, giant; Preemergence, 250 g ai/ha
  Plant response rating (scale of 0 to 100), Foxtail, Giant: 95
corn; [3]
  Plant response rating, Corn: 0
corn; [4]
  Plant response rating, Corn: 0
corn; [5]
  Plant response rating, Corn: 0
corn; [6]
  Plant response rating, Corn: 20
corn; [7]
  Corn plant response rating: 0
corn; [8]
  Corn plant response rating: 0
corn; [9]
  Plant response rating, Corn: 65
corn; Preemergence, 250 g ai/ha
  Plant response rating (scale of 0 to 100), Corn: 70
velvetleaf; [3]
  Plant response rating, Velvetleaf: 5
velvetleaf; [4]
  Plant response rating, Velvetleaf: 5
velvetleaf; [5]
  Plant response rating, Velvetleaf: 5
velvetleaf; [6]
  Plant response rating, Velvetleaf: 15
velvetleaf; [8]
  Velvetleaf plant response rating: 0
velvetleaf; [9]
  Plant response rating, Velvetleaf: 0
velvetleaf; Preemergence, 250 g ai/ha
  Plant response rating (scale of 0 to 100), Velvetleaf: 15
Pigweed [1]; [3]
  Plant response rating, Pigweed: 30
Pigweed [1]; [4]
  Plant response rating, Pigweed: 50
Pigweed [1]; [5]
  Plant response rating, Pigweed: 50
Pigweed [1]; [6]
  Plant response rating, Pigweed: 60
Pigweed [1]; [7]
  Pigweed plant response rating: 0
Pigweed [1]; [8]
  Pigweed plant response rating: 0
Pigweed [1]; [9]
  Plant response rating, Pigweed: 0
Pigweed [1]; Preemergence, 250 g ai/ha
  Plant response rating (scale of 0 to 100), Pigweed: 40
johnsongrass; [3]
  Plant response rating, Johnsongrass: 0
johnsongrass; [4]
  Plant response rating, Johnsongrass: 0
johnsongrass; [5]
  Plant response rating, Johnsongrass: 0
johnsongrass; [6]
  Plant response rating, Johnsongrass: 15
johnsongrass; [7]
  Johnsongrass plant response rating: 10
johnsongrass; [8]
  Johnsongrass plant response rating: 10
johnsongrass; [9]
  Plant response rating, Johnsongrass: 60
johnsongrass; Preemergence, 250 g ai/ha
  Plant response rating (scale of 0 to 100), Johnsongrass: 80
waterhemp; [3]
  Plant response rating, Waterhemp: 0
waterhemp; [4]
  Plant response rating, Waterhemp: 5
waterhemp; [5]
  Plant response rating, Waterhemp: 10
waterhemp; [6]
  Plant response rating, Waterhemp: 10
waterhemp; [8]
  Waterhemp plant response rating: 0
waterhemp; [9]
  Plant response rating, Waterhemp: 30
waterhemp; Preemergence, 250 g ai/ha
  Plant response rating (scale of 0 to 100), Waterhemp: 40
galium; [3]
  Plant response rating, Galium: 30
galium; [4]
  Plant response rating, Galium: 40
galium; [5]
  Plant response rating, Galium: 55
galium; [6]
  Plant response rating, Galium: 60
galium; [7]
  Galium plant response rating: 0
galium; [8]
  Galium plant response rating: 0
galium; [9]
  Plant response rating, Galium: 75
galium; Preemergence, 250 g ai/ha
  Plant response rating (scale of 0 to 100), Galium: 85
Pigweed [2]; Postemergence, 125 g ai/ha, visual rating on 0 to 100 scale (0 no effect, 100 complete control), approx. 10 days
  Plant response rating, Pigweed: 0
Pigweed [2]; Postemergence, 500 g ai/ha, 0 to 100 scale (0 no effect, 100 complete control)
  Plant response rating, Pigweed: 0
Pigweed [2]; Preemergence, 125 g ai/ha, 0 to 100 scale where 0 is no effect and 100 is complete control
  Plant response rating, Pigweed: 0
Pigweed [2]; Preemergence, 500 g ai/ha, visual rating on 0 to 100 scale (0 no effect, 100 complete control)
  Pigweed plant response rating: 0
nutsedge, yellow; [3]
  Plant response rating, Nutsedge, Yellow: 0
nutsedge, yellow; [4]
  Plant response rating, Nutsedge, Yellow: 5
nutsedge, yellow; [5]
  Plant response rating, Nutsedge, Yellow: 30
nutsedge, yellow; [6]
  Plant response rating, Nutsedge, Yellow: 0
nutsedge, yellow; [7]
  Nutsedge, Yellow plant response rating: 0
nutsedge, yellow; [8]
  Nutsedge, Yellow plant response rating: 0
nutsedge, yellow; [9]
  Plant response rating, Nutsedge, Yellow: 0
nutsedge, yellow; Preemergence, 250 g ai/ha
  Plant response rating (scale of 0 to 100), Nutsedge, Yellow: 0
wheat; 125 g ai/ha, visual rating on 0 to 100 scale (0 no effect, 100 complete control), approx. 10 days
  Plant response rating, Wheat: 40
wheat; 500 g ai/ha, 0 to 100 scale (0 no effect, 100 complete control)
  Plant response rating, Wheat: 60
lambsquarters; [3]
  Plant response rating, Lambsquarters: 10
lambsquarters; [4]
  Plant response rating, Lambsquarters: 65
lambsquarters; [5]
  Plant response rating, Lambsquarters: 65
lambsquarters; [6]
  Plant response rating, Lambsquarters: 70
lambsquarters; [7]
  Lambsquarters plant response rating: 0
lambsquarters; [8]
  Lambsquarters plant response rating: 0
lambsquarters; [9]
  Plant response rating, Lambsquarters: 30
lambsquarters; Preemergence, 250 g ai/ha
  Plant response rating (scale of 0 to 100), Lambsquarters: 50
Oilseed rape; [3]
  Plant response rating, Oilseed Rape: 35
Oilseed rape; [4]
  Plant response rating, Oilseed Rape: 30
Oilseed rape; [5]
  Plant response rating, Oilseed Rape: 40
Oilseed rape; [6]
  Plant response rating, Oilseed Rape: 5
Oilseed rape; [7]
  Oilseed Rape plant response rating: 0
Oilseed rape; [8]
  Oilseed Rape plant response rating: 0
Oilseed rape; [9]
  Plant response rating, Oilseed Rape: 50
Oilseed rape; Preemergence, 250 g ai/ha
  Plant response rating (scale of 0 to 100), Oilseed Rape: 70

## O=C1NCC(c2cccc(OC(F)F)c2)C1C(=O)Nc1ccccc1F (centres unmarked) [Compound 223]
foxtail, giant; [3]
  Plant response rating, Foxtail, Giant: 0
foxtail, giant; [4]
  Plant response rating, Foxtail, Giant: 35
foxtail, giant; [5]
  Plant response rating, Foxtail, Giant: 30
foxtail, giant; [6]
  Plant response rating, Foxtail, Giant: 35
foxtail, giant; [7]
  Foxtail, Giant plant response rating: 70
foxtail, giant; [8]
  Foxtail, Giant plant response rating: 85
foxtail, giant; [10]
  Plant response rating, Foxtail, Giant: 90
foxtail, giant; Preemergence, 250 g ai/ha
  Plant response rating (scale of 0 to 100), Foxtail, Giant: 98
corn; [3]
  Plant response rating, Corn: 0
corn; [4]
  Plant response rating, Corn: 0
corn; [5]
  Plant response rating, Corn: 0
corn; [6]
  Plant response rating, Corn: 5
corn; [7]
  Corn plant response rating: 0
corn; [8]
  Corn plant response rating: 0
corn; [10]
  Plant response rating, Corn: 0
corn; Preemergence, 250 g ai/ha
  Plant response rating (scale of 0 to 100), Corn: 45
velvetleaf; [3]
  Plant response rating, Velvetleaf: 0
velvetleaf; [4]
  Plant response rating, Velvetleaf: 0
velvetleaf; [5]
  Plant response rating, Velvetleaf: 0
velvetleaf; [6]
  Plant response rating, Velvetleaf: 20
velvetleaf; [7]
  Velvetleaf plant response rating: 0
velvetleaf; [8]
  Velvetleaf plant response rating: 0
velvetleaf; [10]
  Plant response rating, Velvetleaf: 25
velvetleaf; Preemergence, 250 g ai/ha
  Plant response rating (scale of 0 to 100), Velvetleaf: 35
Pigweed [1]; [3]
  Plant response rating, Pigweed: 5
Pigweed [1]; [4]
  Plant response rating, Pigweed: 10
Pigweed [1]; [5]
  Plant response rating, Pigweed: 10
Pigweed [1]; [6]
  Plant response rating, Pigweed: 60
Pigweed [1]; [7]
  Pigweed plant response rating: 20
Pigweed [1]; [8]
  Pigweed plant response rating: 5
Pigweed [1]; [10]
  Plant response rating, Pigweed: 20
Pigweed [1]; Preemergence, 250 g ai/ha
  Plant response rating (scale of 0 to 100), Pigweed: 30
johnsongrass; [3]
  Plant response rating, Johnsongrass: 0
johnsongrass; [4]
  Plant response rating, Johnsongrass: 0
johnsongrass; [5]
  Plant response rating, Johnsongrass: 0
johnsongrass; [6]
  Plant response rating, Johnsongrass: 0
johnsongrass; [7]
  Johnsongrass plant response rating: 0
johnsongrass; [8]
  Johnsongrass plant response rating: 0
johnsongrass; [10]
  Plant response rating, Johnsongrass: 35
johnsongrass; Preemergence, 250 g ai/ha
  Plant response rating (scale of 0 to 100), Johnsongrass: 55
waterhemp; [3]
  Plant response rating, Waterhemp: 0
waterhemp; [4]
  Plant response rating, Waterhemp: 0
waterhemp; [5]
  Plant response rating, Waterhemp: 10
waterhemp; [6]
  Plant response rating, Waterhemp: 10
waterhemp; [7]
  Waterhemp plant response rating: 90
waterhemp; [8]
  Waterhemp plant response rating: 0
waterhemp; [10]
  Plant response rating, Waterhemp: 0
waterhemp; Preemergence, 250 g ai/ha
  Plant response rating (scale of 0 to 100), Waterhemp: 25
galium; [3]
  Plant response rating, Galium: 5
galium; [4]
  Plant response rating, Galium: 5
galium; [5]
  Plant response rating, Galium: 45
galium; [6]
  Plant response rating, Galium: 70
galium; [7]
  Galium plant response rating: 0
galium; [8]
  Galium plant response rating: 0
galium; [10]
  Plant response rating, Galium: 90
galium; Preemergence, 250 g ai/ha
  Plant response rating (scale of 0 to 100), Galium: 90
Pigweed [2]; 125 g ai/ha, visual rating, 0 to 100 scale, 0 no effect, 100 complete control, approximately 10 days, preemergence
  Plant response rating, Pigweed: 20
Pigweed [2]; Postemergence, 125 g ai/ha, 0 to 100 scale, 0 is no effect, 100 is complete control
  Plant response rating, Pigweed: 40
Pigweed [2]; Postemergence, 500 g ai/ha
  Pigweed plant response rating (0 to 100 scale, 0 is no effect, 100 is complete control): 60
Pigweed [2]; preemergence, 500 g ai/ha, 0 to 100 scale, 0 is no effect and 100 is complete control
  Plant response rating, Pigweed: 50
nutsedge, yellow; [3]
  Plant response rating, Nutsedge, Yellow: 0
nutsedge, yellow; [4]
  Plant response rating, Nutsedge, Yellow: 0
nutsedge, yellow; [5]
  Plant response rating, Nutsedge, Yellow: 0
nutsedge, yellow; [6]
  Plant response rating, Nutsedge, Yellow: 0
nutsedge, yellow; [7]
  Nutsedge, Yellow plant response rating: 100
nutsedge, yellow; [8]
  Nutsedge, Yellow plant response rating: 0
nutsedge, yellow; [10]
  Plant response rating, Nutsedge, Yellow: 0
nutsedge, yellow; Preemergence, 250 g ai/ha
  Plant response rating (scale of 0 to 100), Nutsedge, Yellow: 0
wheat; 125 g ai/ha, 0 to 100 scale, 0 is no effect, 100 is complete control
  Plant response rating, Wheat: 40
wheat; 500 g ai/ha
  Wheat plant response rating (0 to 100 scale, 0 is no effect, 100 is complete control): 50
lambsquarters; [3]
  Plant response rating, Lambsquarters: 0
lambsquarters; [4]
  Plant response rating, Lambsquarters: 5
lambsquarters; [5]
  Plant response rating, Lambsquarters: 35
lambsquarters; [6]
  Plant response rating, Lambsquarters: 60
lambsquarters; [7]
  Lambsquarters plant response rating: 70
lambsquarters; [8]
  Lambsquarters plant response rating: 70
lambsquarters; [10]
  Plant response rating, Lambsquarters: 85
lambsquarters; Preemergence, 250 g ai/ha
  Plant response rating (scale of 0 to 100), Lambsquarters: 90
Oilseed rape; [3]
  Plant response rating, Oilseed Rape: 0
Oilseed rape; [4]
  Plant response rating, Oilseed Rape: 0
Oilseed rape; [5]
  Plant response rating, Oilseed Rape: 0
Oilseed rape; [6]
  Plant response rating, Oilseed Rape: 10
Oilseed rape; [7]
  Oilseed Rape plant response rating: 0
Oilseed rape; [8]
  Oilseed Rape plant response rating: 0
Oilseed rape; [10]
  Plant response rating, Oilseed Rape: 0
Oilseed rape; Preemergence, 250 g ai/ha
  Plant response rating (scale of 0 to 100), Oilseed Rape: 5
